Like-named read-outs stand apart in the source and are kept apart here.
Experiments:
reactive oxygen species = assay type: cell-based, mouse
mtOXPHOS transcripts = assay type: cell-based, mouse
nuOXPHOS transcripts = assay type: cell-based, mouse
[1] = tested on: cellular dehydrogenase activity
cytochrome c = assay type: cell-based, mouse
[2] = tested on: mitochondrial membrane potential; assay type: cell-based, mouse
OXPHOS gene expression = assay type: cell-based, mouse
[3] = normalized composite Z-score vs mock-treated (DMSO) wells, Conc 20 μM
[4] = composite Z-score vs DMSO, Conc 20 μM
[5] = composite Z-score vs DMSO, Conc 20.18 μM
[6] = composite Z-score vs mock-treated (DMSO) wells, Conc 20 μM
[7] = Conc 20 μM, normalized score vs mock-treated (DMSO) wells
[8] = composite Z-score vs DMSO wells, Conc 20 μM
[9] = 20 μM, composite Z-score vs DMSO

CC(=O)Oc1cc(OC(C)=O)c2c(c1)O[C@H](c1ccc(OC(C)=O)c(OC(C)=O)c1)[C@@H](OC(C)=O)C2 [catechin pentaacetate]
ROS (reactive oxygen species; [3]): −1.649
mitoOX (mtOXPHOS transcripts; [3]): 0.161
nucOX (nuOXPHOS transcripts; [3]): 0.314
Viability (C2C12 myotubes; [3]): 0.652
MTT [1, 3]: −1.126
cyt c (cytochrome c; [3]): 0.425
ΔΨm [2, 3]: −2.799
GE-HTS (OXPHOS gene expression; [3]): 0.269

COc1ccc(-c2coc3cc(O)ccc3c2=O)c(OC)c1O [koparin 2′-methyl ether]
ROS (reactive oxygen species; [4]): 0.126
mitoOX (mtOXPHOS transcripts; [4]): −0.309
nucOX (nuOXPHOS transcripts; [4]): −1.461
Viability (C2C12 myotubes; [4]): 0.024
MTT [1, 4]: −0.532
cyt c (cytochrome c; [4]): 0.007
ΔΨm [2, 4]: −0.442
GE-HTS (OXPHOS gene expression; [4]): −1.151

c1ccc2c(c1)CN1CCCC1=N2 [desoxypeganine]
ROS (reactive oxygen species; [4]): 0.647
mitoOX (mtOXPHOS transcripts; [4]): 0.556
nucOX (nuOXPHOS transcripts; [4]): 0.621
Viability (C2C12 myotubes; [4]): −0.281
MTT [1, 4]: 1.441
cyt c (cytochrome c; [4]): 0.372
ΔΨm [2, 4]: 1.046
GE-HTS (OXPHOS gene expression; [4]): 0.631

C[C@H]1CC[C@]2(NC1)O[C@H]1C[C@H]3[C@@H]4CC[C@H]5C[C@@H](O)CC[C@]5(C)[C@H]4CC[C@]3(C)[C@H]1[C@@H]2C [tomatidine]
ROS (reactive oxygen species; [4]): 1.323
mitoOX (mtOXPHOS transcripts; [4]): −0.857
nucOX (nuOXPHOS transcripts; [4]): −1.473
Viability (C2C12 myotubes; [4]): 0.490
MTT [1, 4]: −1.376
cyt c (cytochrome c; [4]): 0.913
cyt c (cytochrome c; composite Z-score vs mock-treated (DMSO) wells, concentration of each compound in μM): 1.135
ΔΨm [2, 4]: −0.425
GE-HTS (OXPHOS gene expression; [4]): −1.375

CC1(O)CC2C(CC1O)C2(C)C (stereo not shown) [3,4-dihydroxycarane]
ROS (reactive oxygen species; [4]): 0.697
mitoOX (mtOXPHOS transcripts; [4]): −1.620
nucOX (nuOXPHOS transcripts; [4]): −0.951
Viability (C2C12 myotubes; [4]): 0.448
MTT [1, 4]: −0.697
cyt c (cytochrome c; [4]): 0.475
ΔΨm [2, 4]: −0.659
GE-HTS (OXPHOS gene expression; [4]): −1.265

COC(=O)c1c(C)cc(O)cc1O [methyl orsellinate]
ROS (reactive oxygen species; [4]): 1.212
mitoOX (mtOXPHOS transcripts; [4]): −1.146
nucOX (nuOXPHOS transcripts; [4]): −1.000
Viability (C2C12 myotubes; [4]): −0.008
MTT [1, 4]: 0.148
cyt c (cytochrome c; [4]): 0.573
ΔΨm [2, 4]: −0.632
GE-HTS (OXPHOS gene expression; [4]): −1.129

NC(=O)N/N=C/c1ccc([N+](=O)[O-])o1 [nitrofural]
ROS (reactive oxygen species; [5]): 0.446
mitoOX (mtOXPHOS transcripts; [5]): −0.750
nucOX (nuOXPHOS transcripts; [5]): −0.010
Viability (C2C12 myotubes; [5]): 0.584
MTT [1, 5]: −0.852
cyt c (cytochrome c; [5]): 0.342
ΔΨm [2, 5]: −0.518
GE-HTS (OXPHOS gene expression; [5]): −0.260

Cc1cc(=O)c2c(O)c3c(cc2o1)OC(C)(C)CC3 [dihydrospatheliachromene]
ROS (reactive oxygen species; [6]): 1.483
mitoOX (mtOXPHOS transcripts; [6]): −0.569
nucOX (nuOXPHOS transcripts; [6]): −0.620
Viability (C2C12 myotubes; [6]): −0.538
MTT [1, 6]: −1.802
cyt c (cytochrome c; [6]): 0.068
ΔΨm [2, 6]: −0.174
GE-HTS (OXPHOS gene expression; [6]): −0.666

COC(=O)[C@@H]1[C@H]2C[C@H]3c4[nH]c5ccccc5c4CCN3C[C@@H]2CC[C@@H]1O [yohimbine]
ROS (reactive oxygen species): 0.159
mitoOX (mtOXPHOS transcripts): −0.471
nucOX (nuOXPHOS transcripts): 0.169
Viability (C2C12 myotubes): −0.860
MTT [1]: −1.915
cyt c (cytochrome c): 0.699
ΔΨm [2]: −1.197
GE-HTS (OXPHOS gene expression): −0.041

C=C[C@@](C)(O)CC[C@H]1C(=C)C[C@H](O)[C@H]2C(C)(C)CCC[C@]12C [larixol]
ROS (composite Z-score) (reactive oxygen species; [7]): 1.068
mitoOX (composite Z-score) (mtOXPHOS transcripts; [7]): −0.552
nucOX (composite Z-score) (nuOXPHOS transcripts; [7]): −0.466
Viability (composite Z-score) (C2C12 myotubes; [7]): 0.085
MTT (composite Z-score) [1, 7]: −0.221
cyt c (composite Z-score) (cytochrome c; [7]): 0.944
ΔΨm (composite Z-score) [2, 7]: −0.141
GE-HTS (composite Z-score) (OXPHOS gene expression; [7]): −0.507

CC(=O)OCC(=O)[C@@]1(O)[C@H](C)C[C@H]2[C@@H]3CCC4=CC(=O)C=C[C@]4(C)[C@@]3(F)[C@@H](O)C[C@@]21C [dexamethasone acetate]
ROS (reactive oxygen species; [4]): 0.067
mitoOX (mtOXPHOS transcripts; [4]): 0.330
nucOX (nuOXPHOS transcripts; [4]): 0.516
Viability (C2C12 myotubes; [4]): −1.518
MTT [1, 4]: 0.058
cyt c (cytochrome c; [4]): 0.174
ΔΨm [2, 4]: −0.439
GE-HTS (OXPHOS gene expression; [4]): 0.461

CCOc1ccc(NC(C)=O)cc1 [phenacetin]
ROS (reactive oxygen species; [8]): 1.491
mitoOX (mtOXPHOS transcripts; [8]): 0.564
nucOX (nuOXPHOS transcripts; [8]): 0.833
Viability (C2C12 myotubes; [8]): 0.665
MTT [1, 8]: 0.760
cyt c (cytochrome c): −0.611
cyt c (cytochrome c; [8]): 0.005
ΔΨm [2, 8]: −0.255
GE-HTS (OXPHOS gene expression; [8]): 0.811

COc1c2occc2cc2ccc(=O)oc12 [methoxsalen]
ROS (reactive oxygen species; [9]): 0.310
mitoOX (mtOXPHOS transcripts; [9]): −0.489
nucOX (nuOXPHOS transcripts; [9]): −0.513
Viability (C2C12 myotubes; [9]): 0.416
MTT [1, 9]: −0.976
cyt c (cytochrome c; [9]): −0.889
ΔΨm [2, 9]: −0.034
GE-HTS (OXPHOS gene expression; [9]): −0.562

Reference: patent US20090143279A1 (priority 2007, published 2009)
